Data as given in patent US10961248B2, “Pesticidally active heterocyclic derivatives with sulfur containing substituents” (SYNGENTA PARTICIPATIONS AG, priority 2016, dated 2021).

How the values were obtained:
Type in all cases: in vivo
[1] = system: Plutella xylostella (Diamond Back Moth); assay: Example B1: activity against Plutella xylostella, artificial diet in 24-well plates; settings: 120 h, application rate 200 ppm, L2 larvae on artificial diet, 5 days after infestation, read-out: effect in at least one of the two categories (mortality or growth inhibition)
Procedure: 24-well microtiter plates with artificial diet were treated with aqueous test solutions prepared from 10'000 ppm DMSO stock solutions by pipetting. After drying, the plates were infested with L2 larvae (10 to 15 per well). The samples were assessed for mortality and growth inhibition in comparison to untreated samples 5 days after infestation.

[2] = system: Myzus persicae (Green Peach Aphid); assay: Example B2: activity against Myzus persicae, sprayed sunflower leaf discs; settings: foliar, 144 h, application rate 200 ppm, aphid population of mixed ages, 6 days after infestation
Procedure: Sunflower leaf discs were placed on agar in a 24-well microtiter plate and sprayed with aqueous test solutions prepared from 10'000 ppm DMSO stock solutions. After drying, the leaf discs were infested with an aphid population of mixed ages. The samples were assessed for mortality 6 days after infestation.

[3] = system: Myzus persicae (Green Peach Aphid); assay: Example B3: activity against Myzus persicae, roots of pea seedlings in test solution; settings: 144 h, test rate 24 ppm, roots of infested pea seedlings in test solution, 6 days
Procedure: Roots of pea seedlings infested with an aphid population of mixed ages were placed directly in the aqueous test solutions prepared from 10'000 DMSO stock solutions. The samples were assessed for mortality 6 days after placing seedlings in test solutions.

[4] = system: Frankliniella occidentalis (Western Flower Thrips); assay: Example B4: activity against Frankliniella occidentalis, sprayed sunflower leaf discs; settings: foliar, 168 h, application rate 200 ppm, population of mixed ages, 7 days after infestation
Procedure: Sunflower leaf discs were placed on agar in 24-well microtiter plates and sprayed with aqueous test solutions prepared from 10'000 DMSO stock solutions. After drying the leaf discs were infested with a Frankliniella population of mixed ages. The samples were assessed for mortality 7 days after infestation.

[5] = system: Bemisia tabaci (Cotton White Fly); assay: Example B5: activity against Bemisia tabaci, sprayed cotton leaf discs; settings: foliar, 144 h, application rate 200 ppm, adult white flies, 6 days after incubation
Procedure: Cotton leaf discs were placed on agar in 24-well microtiter plates and sprayed with aqueous test solutions prepared from 10'000 ppm DMSO stock solutions. After drying the leaf discs were infested with adult white flies. The samples were checked for mortality 6 days after incubation.

[6] = system: Euschistus heros (Neotropical Brown Stink Bug); assay: Example B6: activity against Euschistus heros, sprayed soybean leaf; settings: 120 h, application rate 200 ppm, N-2 nymphs, 5 days after infestation, read-out: effect in at least one of the two categories (mortality or growth inhibition)
Procedure: Soybean leaf on agar in 24-well microtiter plates were sprayed with aqueous test solutions prepared from 10'000 ppm DMSO stock solutions. After drying the leaf were infested with N-2 nymphs. The samples were assessed for mortality and growth inhibition in comparison to untreated samples 5 days after infestation.

[7] = system: Diabrotica Balteata (Corn Root Worm); assay: Example B7: activity against Diabrotica balteata, sprayed maize sprouts; settings: 96 h, application rate 200 ppm, L2 larvae, 4 days after infestation, read-out: effect in at least one of the two categories (mortality or growth inhibition)
Procedure: Maize sprouts placed onto an agar layer in 24-well microtiter plates were treated with aqueous test solutions prepared from 10'000 ppm DMSO stock solutions by spraying. After drying, the plates were infested with L2 larvae (6 to 10 per well). The samples were assessed for mortality and growth inhibition in comparison to untreated samples 4 days after infestation.

[8] = system: Spodoptera littoralis (Egyptian Cotton Leaf Worm); assay: Example B7: activity against Spodoptera littoralis, sprayed cotton leaf discs; settings: foliar, 72 h, application rate 200 ppm, L1 larvae, 3 days after infestation
Procedure: Cotton leaf discs were placed onto agar in 24-well microtiter plates and sprayed with aqueous test solutions prepared from 10'000 ppm DMSO stock solutions. After drying the leaf discs were infested with five L1 larvae. The samples were assessed for mortality, anti-feeding effect, and growth inhibition in comparison to untreated samples 3 days after infestation. Control of Spodoptera littoralis by a test sample is given when at least one of the categories mortality, anti-feedant effect, and growth inhibition is higher than the untreated sample.

[9] = system: Tetranychus urticae (Two-Spotted Spider Mite); assay: Example B7: activity against Tetranychus urticae, sprayed bean leaf discs; settings: foliar, 192 h, application rate 200 ppm, mixed population (mobile stages), 8 days after infestation
Procedure: Bean leaf discs on agar in 24-well microtiter plates were sprayed with aqueous test solutions prepared from 10'000 ppm DMSO stock solutions. After drying the leaf discs were infested with a mite population of mixed ages. The samples were assessed for mortality on mixed population (mobile stages) 8 days after infestation.

[10] = system: Thrips tabaci (Onion Thrips); assay: Example B7: activity against Thrips tabaci, sprayed sunflower leaf discs; settings: foliar, 144 h, application rate 200 ppm, population of mixed ages, 6 days after infestation
Procedure: Sunflower leaf discs were placed on agar in 24-well microtiter plates and sprayed with aqueous test solutions prepared from 10'000 ppm DMSO stock solutions. After drying the leaf discs were infested with a Thrips population of mixed ages. The samples were assessed for mortality 6 days after infestation.

CCS(=O)(=O)c1cc(N=S(C)(C)=O)cnc1-c1nc2cc(C(F)(F)F)ncc2n1C [P2, [5-ethylsulfonyl-6-[3-methyl-6-(trifluoromethyl)imidazo[4,5-c]pyridin-2-yl]-3-pyridyl]imino-dimethyl-oxo-λ^6-sulfane]
≥ 80%: percent effect (mortality or growth inhibition) at 200 ppm [1] | mortality at 200 ppm [2] | mortality at 24 ppm [3] | mortality at 200 ppm [4] | mortality at 200 ppm [5] | percent effect (mortality or growth inhibition) at 200 ppm [6] | percent effect (mortality or growth inhibition) at 200 ppm [7] | percent control (mortality, anti-feedant effect or growth inhibition) at 200 ppm [8] | mortality at 200 ppm [9] | mortality at 200 ppm [10]
